Tests used:
NOD1 [1] = target: T1, NOD1 (Mus musculus, UniProt Q8BHB0); assay: FK156 acute peritonitis model in mice, serum KC and IP-10; type: in vivo; settings: oral administration, intraperitoneal FK156, data not shown
T1 construct: following intraperitoneal injection of FK156 in a model of acute peritonitis; from tissue; host or cells: whole mouse (in vivo)
T1 sequence (Q8BHB0 1-953): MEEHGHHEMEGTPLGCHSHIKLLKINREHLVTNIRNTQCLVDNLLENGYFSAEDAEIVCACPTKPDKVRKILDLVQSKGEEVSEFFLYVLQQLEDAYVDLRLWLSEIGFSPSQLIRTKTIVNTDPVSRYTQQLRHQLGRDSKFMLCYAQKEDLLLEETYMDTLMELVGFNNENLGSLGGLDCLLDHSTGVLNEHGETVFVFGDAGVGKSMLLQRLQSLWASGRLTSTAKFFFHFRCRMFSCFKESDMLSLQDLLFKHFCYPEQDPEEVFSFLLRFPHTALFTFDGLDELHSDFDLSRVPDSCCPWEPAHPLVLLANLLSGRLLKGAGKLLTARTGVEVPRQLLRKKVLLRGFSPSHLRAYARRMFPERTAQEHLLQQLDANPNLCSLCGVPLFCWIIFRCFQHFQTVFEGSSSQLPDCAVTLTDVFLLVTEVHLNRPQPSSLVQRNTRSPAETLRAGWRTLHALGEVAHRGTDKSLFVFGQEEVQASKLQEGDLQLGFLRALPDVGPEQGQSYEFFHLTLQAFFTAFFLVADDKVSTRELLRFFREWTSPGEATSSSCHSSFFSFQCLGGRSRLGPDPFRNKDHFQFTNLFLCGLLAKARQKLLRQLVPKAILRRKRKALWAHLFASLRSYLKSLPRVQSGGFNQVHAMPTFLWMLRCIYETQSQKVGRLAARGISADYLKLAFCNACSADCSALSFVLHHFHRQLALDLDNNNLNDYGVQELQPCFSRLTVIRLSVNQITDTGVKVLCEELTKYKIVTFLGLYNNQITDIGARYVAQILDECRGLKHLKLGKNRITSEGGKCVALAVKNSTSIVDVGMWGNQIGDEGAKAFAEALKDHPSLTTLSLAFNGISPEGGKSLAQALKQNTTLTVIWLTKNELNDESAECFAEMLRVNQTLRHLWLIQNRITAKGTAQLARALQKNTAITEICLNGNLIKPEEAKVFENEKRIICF
Description: We speculate that the known differences in ligand recognition between human and mouse NOD1 mapped to residues within the leucine-rich repeat domains could underlie the observed differential activity of the compounds on human versus mouse NOD1 signaling.

NOD1 [2] = system: NOD1; set-up: method as in PMID 22870324; settings: human lung microvascular endothelial cells, 10 µg/mL iE-DAP; cited from earlier work
TLR4 = system: TLR4; set-up: method as in PMID 22870324; settings: human lung microvascular endothelial cells; cited from earlier work
EPHB2 = target: T2, EPHB2 (Homo sapiens, UniProt P29323); assay: Kinase activity panel: EPHB2; type: biochemical; settings: 1 µM compound, 10 µM ATP
T2 construct: purchased Reaction Biology Corp
T2 sequence (P29323 19-1055): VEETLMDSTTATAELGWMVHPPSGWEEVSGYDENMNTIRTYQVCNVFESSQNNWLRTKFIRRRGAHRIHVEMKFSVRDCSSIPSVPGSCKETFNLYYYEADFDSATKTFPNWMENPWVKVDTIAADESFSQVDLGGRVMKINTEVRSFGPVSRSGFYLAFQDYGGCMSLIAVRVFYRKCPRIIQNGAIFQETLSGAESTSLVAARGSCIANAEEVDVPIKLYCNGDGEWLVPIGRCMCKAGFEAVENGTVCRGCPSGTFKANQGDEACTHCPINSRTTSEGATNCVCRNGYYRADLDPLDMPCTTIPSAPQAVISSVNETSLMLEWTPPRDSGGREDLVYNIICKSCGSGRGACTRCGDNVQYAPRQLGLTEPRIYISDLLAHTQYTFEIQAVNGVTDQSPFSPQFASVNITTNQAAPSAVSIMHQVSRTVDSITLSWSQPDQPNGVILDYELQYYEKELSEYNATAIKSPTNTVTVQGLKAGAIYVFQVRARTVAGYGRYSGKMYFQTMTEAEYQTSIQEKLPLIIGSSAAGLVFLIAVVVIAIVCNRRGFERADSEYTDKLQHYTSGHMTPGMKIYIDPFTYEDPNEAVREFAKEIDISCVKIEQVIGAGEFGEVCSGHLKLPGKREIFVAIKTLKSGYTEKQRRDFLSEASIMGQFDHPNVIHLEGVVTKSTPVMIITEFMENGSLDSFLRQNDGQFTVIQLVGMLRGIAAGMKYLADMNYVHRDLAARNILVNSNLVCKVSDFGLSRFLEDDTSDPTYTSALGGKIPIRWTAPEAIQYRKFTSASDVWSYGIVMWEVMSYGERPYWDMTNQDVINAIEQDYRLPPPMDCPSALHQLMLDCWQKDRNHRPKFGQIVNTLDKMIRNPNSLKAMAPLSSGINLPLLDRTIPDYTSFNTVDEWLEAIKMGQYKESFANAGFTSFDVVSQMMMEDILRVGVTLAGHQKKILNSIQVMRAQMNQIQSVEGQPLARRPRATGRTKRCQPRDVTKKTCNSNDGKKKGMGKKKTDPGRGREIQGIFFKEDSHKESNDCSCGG
Experimental: (§1) The compounds were tested in duplicate at 1 µM with a 20-minute pre-incubation with enzyme followed by addition of 10 µM ATP.

CAMK1 = target: T3, CAMK1 (Homo sapiens, UniProt Q14012); assay: Kinase activity panel: CAMK1; type: biochemical; settings: 1 µM compound, 10 µM ATP
T3 construct: purchased Reaction Biology Corp
Experimental: as §1

[3] = system: NOD1 induced NF-κB and MAPK pathways; assay: Western blotting of IκBα and phospho-MAPKs in Tri-DAP stimulated 293/hNOD1 cells; type: cell-based, human; settings: 50 µg/mL Tri-DAP 1 hour, immunoblotting
Experimental: Confluent cultures of 293/hNOD1 and -hNOD2 cells seeded in 24-well plates were serum-starved over-night, pre-incubated for 1 hour with compound and then stimulated for 1 hour with either 50 µg/mL Tri-DAP or 25 µg/mL MDP, respectively. Whole cell lysates were prepared in 1X cell lysis buffer (Cell Signaling Technology) supplemented with additional protease, aminopeptidase and phosphatase inhibitors (protease inhibitor cocktail set III, EMD Biosciences; phosphatase inhibitor sets II and III, Sigma-Aldrich). The levels of phosphorylated and total p38, JNK, ERK1/2 and total IκBα were determined by immunoblotting of ∼20 µg protein per sample using the following primary antibodies: phospho-p38 MAPK (12F8, #4631), p38 MAPK (#9212), phospho-JNK (#9251), JNK (#9252) and IκBα (#9242) all purchased from Cell Signaling Technology, and phospho-ERK1/2 (sc-7383) and ERK1/2 (sc-94) antibodies from Santa Cruz Biotechnology.

[4] = system: panel of 300 human kinases; assay: Kinase activity panel (Reaction Biology Corp); type: biochemical; settings: 1 µM compound, 10 µM ATP, 300 kinases
Experimental: as §1

In the case of `Cc1nc2ccccc2c(=O)n1-c1ccc(Cl)c(NS(=O)(=O)c2ccccc2F)c1` [Compound 22], the “effect on serum KC and IP-10 (CXCL10)” value (NOD1 [1]) is given as “failed to reduce serum KC and IP-10 (CXCL10)”, the “effect on IL-8 secretion, iE-DAP stimulated” value (NOD1 [2]) is given as “inhibited IL-8 secretion” and the “effect on IL-8 release, LPS stimulated” value (TLR4) is given as “no inhibitory effect”.

With `Cn1c(=O)[nH]c(=O)c2c1nc(CCSc1ccccc1)n2Cc1ccccc1` [SB711] the “decrease of EPHB2 activity” value (EPHB2) was 51%.

In the case of `Cc1nc2ccc(NC(=O)c3cccc(NS(=O)(=O)c4ccc(F)cc4)c3)cc2s1` [GSK966], the “decrease of CAMK1 activity” value (CAMK1) is reported as 55%.

With `Cc1ccc(S(=O)(=O)Nc2cccc(C(=O)Nc3ccc4nc(C)sc4c3)c2)cc1` [Compound 16] the “effect on Tri-DAP induced p-JNK, p-p38 and IκBα responses” value [3] was “reduced both phospho-JNK and the weaker phospho-p38 levels while levels of IκBα were increased”.

With `CCc1ccc(S(=O)(=O)Nc2cc(-n3c(C)nc4ccccc4c3=O)ccc2F)s1` [GSK223] the “inhibition of any kinase in panel” value [4] was at most 50%.

— article PMC4013053, “Identification of Selective Small Molecule Inhibitors of the Nucleotide-Binding Oligomerization Domain 1 (NOD1) Signaling Pathway” (PLoS ONE, 2014)
